Data reported in US20250268903A1, “RXFP1 AGONISTS” (BRISTOL-MYERS SQUIBB COMPANY, priority 2021, published 2025).

What follows are compounds tested against T1, human RXFP1 (Homo sapiens, UniProt Q9HBX9) (assay: hRXFP1 HEK293 cAMP assay (HTRF)). Conditions: HEK293 cells stably expressing human RXFP1, 30 min at room temperature.
T1 construct: expressed in transfected cells
T1 sequence (Q9HBX9 1-757): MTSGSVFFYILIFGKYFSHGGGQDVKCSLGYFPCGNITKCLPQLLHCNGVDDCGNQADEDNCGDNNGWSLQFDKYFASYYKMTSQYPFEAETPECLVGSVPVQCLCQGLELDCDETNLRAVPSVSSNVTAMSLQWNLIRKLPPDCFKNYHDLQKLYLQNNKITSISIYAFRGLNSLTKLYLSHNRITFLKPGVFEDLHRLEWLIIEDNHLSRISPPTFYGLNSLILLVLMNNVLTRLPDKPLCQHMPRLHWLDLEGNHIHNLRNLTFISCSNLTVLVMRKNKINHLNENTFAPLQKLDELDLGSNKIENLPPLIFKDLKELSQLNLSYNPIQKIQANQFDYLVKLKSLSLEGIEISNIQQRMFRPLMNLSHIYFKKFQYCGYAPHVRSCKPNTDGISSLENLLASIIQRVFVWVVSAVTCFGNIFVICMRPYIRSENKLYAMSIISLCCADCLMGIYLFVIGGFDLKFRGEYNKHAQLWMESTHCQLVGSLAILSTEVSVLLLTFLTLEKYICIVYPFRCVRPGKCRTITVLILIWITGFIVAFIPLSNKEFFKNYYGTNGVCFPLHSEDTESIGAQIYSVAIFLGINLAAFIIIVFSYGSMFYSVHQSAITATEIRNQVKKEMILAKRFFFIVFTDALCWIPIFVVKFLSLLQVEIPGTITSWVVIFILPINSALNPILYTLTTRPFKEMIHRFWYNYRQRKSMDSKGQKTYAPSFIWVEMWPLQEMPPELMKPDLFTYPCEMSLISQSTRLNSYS
Type: cell-based
Outline: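 In a stable human RXFP1 HEK293 line, compounds acted for 30 min at RT in buffer with 0.5 mM IBMX. HTRF then quantified cellular cAMP.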

In order of falling EC50:
1. COC(=O)[C@@H]1CCN(C(=O)Cc2ccc(OC)c(C(=O)NC3C(C(=O)Nc4ccc(F)c(C(F)(F)F)c4)[C@H]4CC[C@@H]3/C4=C\C3CC3)c2)C1 (stereo partly drawn) [Example 356]  4020 nM
2. COc1ccc(S(=O)(=O)NC2CCOC2)cc1C(=O)NC1C2CCC(/C2=C/C(F)(F)F)[C@@H]1C(=O)Nc1ccc(F)c(C(F)(F)F)c1 (stereo partly drawn) [Example 198, (2S,3R,7Z)-N-[4-fluoro-3-(trifluoromethyl)phe-nyl]-3-{2-methoxy-5-[(oxolan-3-yl)sulfamoyl]benza-mido}-7-(2,2,2-trifluoroethylidene)bi-cyclo[2.2.1]heptane-2-carboxamide]  1920 nM
3. COc1ccc(CCCNC[C@H](O)C(F)(F)F)cc1C(=O)N[C@@H]1C2CCC(/C2=C/C(F)(F)F)[C@@H]1C(=O)Nc1ccc(F)c(C(F)(F)F)c1 (stereo partly drawn) [Example 118, (2S,3R,7Z)-N-[4-fluoro-3-(trifluoromethyl)phe-nyl]-3-[2-methoxy-5-(3-{[(2S)-3,3,3-trifluoro-2-hydroxypropyl]amino}propyl)benzamido]-7-(2,2,2-trifluoroethylidene)bi-cyclo[2.2.1]heptane-2-carboxamide]  1780 nM
4. COc1ccc(C2CC3(CC(NC(=O)OC(C)(C)C)C3)C2)cc1C(=O)NC1C2CCC(/C2=C/C(F)(F)F)[C@@H]1C(=O)Nc1ccc(F)c(C(F)(F)F)c1 (stereo partly drawn) [Example 153, tert-butyl N-[6-(3-{[(2R,3S,7Z)-3-{[4-fluoro-3-(trifluoromethyl)phe-nyl]carbamoyl}-7-(2,2,2-trifluoroethylidene)bi-cyclo[2.2.1]heptan-2-yl]carbamoyl}-4-methoxyphenyl)spiro [3.3]heptan-2-yl]carbamate]  1620 nM
5. COc1ccc(C[C@@H]2CCC(=O)N2)cc1C(=O)NC1C2CCC(/C2=C/C(F)(F)F)[C@@H]1C(=O)Nc1ccc(F)c(C(F)(F)F)c1 (stereo partly drawn) [Example 183, (7Z)-N-[4-fluoro-3-(trifluoromethyl)phe-nyl]-3-(2-methoxy-5-{[(2S)-5-oxopyrrolidin-2-yl]methyl}benzamido)-7-(2,2,2-trifluoroethylidene)bi-cyclo[2.2.1]heptane-2-carboxamide]  850 nM
6. COc1ccc(C(C)CCO)cc1C(=O)N[C@@H]1C2CCC(/C2=C/C(F)(F)F)[C@@H]1C(=O)Nc1ccc(F)c(C(F)(F)F)c1 (single isomer, unassigned) [Example 60]  648 nM
7. COc1ccc(CCCNC(=O)C(C)(C)O)cc1C(=O)N[C@@H]1C2CCC(/C2=C/C(F)(F)F)[C@@H]1C(=O)Nc1ccc(F)c(C(F)(F)F)c1 (stereo partly drawn) [Example 113, (2S,3R,7Z)-N-[4-fluoro-3-(trifluoromethyl)phe-nyl]-3-{5-[3-(2-hydroxy-2-methylpropanamido)propyl]-2-methoxybenzamido}-7-(2,2,2-trifluoroethylidene)bi-cyclo[2.2.1]heptane-2-carboxamide]  341 nM
8. COc1ccc(C#CCCCOC(=O)NC2CCC2)cc1C(=O)N[C@@H]1C2CCC(/C2=C/C(F)(F)F)[C@@H]1C(=O)Nc1ccc(F)c(C(F)(F)F)c1 (stereo partly drawn) [Example 80, 5-(3-{[(2R,3S,7Z)-3-{[4-fluoro-3-(trifluoromethyl)phe-nyl]carbamoyl}-7-(2,2,2-trifluoroethylidene)bi-cyclo[2.2.1]heptan-2-yl]carbamoyl}-4-methoxyphenyl)pent-4-yn-1-yl N-cyclobutylcarbamate]  303 nM
9. COc1ccc(C2CC2CO)cc1C(=O)N[C@@H]1C2CCC(/C2=C/C(F)(F)F)[C@@H]1C(=O)Nc1ccc(F)c(C(F)(F)F)c1 (single isomer, unassigned) [Example 64]  252 nM
10. COc1ccc(C2CCCC(OC(=O)Nc3ccccc3)C2)cc1C(=O)N[C@@H]1C2CCC(/C2=C/C(F)(F)F)[C@@H]1C(=O)Nc1ccc(F)c(C(F)(F)F)c1 (single isomer, unassigned) [Example 42]  214 nM
11. COc1ccc(C2CCCC(OC(=O)Nc3ccccc3)C2)cc1C(=O)N[C@@H]1C2CCC(/C2=C/C(F)(F)F)[C@@H]1C(=O)Nc1ccc(F)c(C(F)(F)F)c1 (single isomer, unassigned) [Example 43]  157 nM
12. (1R,4R,7Z)-7-(2- cyclobutylethylidene)- N-[4-fluoro-3- (trifluoromethyl) phenyl]-3-[5-(3- hydroxypropyl)-2- methoxybenzamido] bicyclo[2.2.1]heptane- 2-carboxamide [Example 261]  147 nM
13. COc1ccc(COc2ccccc2)cc1C(=O)N[C@@H]1C2CCC(/C2=C/C(F)(F)F)[C@@H]1C(=O)Nc1ccc(F)c(C(F)(F)F)c1 (stereo partly drawn) [Example 20, (2S,3R,7Z)-N-[4-fluoro-3-(trifluoromethyl)phe-nyl]-3-[2-methoxy-5-(phenoxymethyl)ben-zamido]-7-(2,2,2-trifluoroethylidene)bi-cyclo[2.2.1]heptane-2-carboxamide]  142 nM
14. COc1ccc(S(=O)(=O)N2CCOC[C@H]2CO)cc1C(=O)N[C@H]1[C@@H](C(=O)Nc2ccc(F)c(C(F)(F)F)c2)[C@H]2CC[C@@H]1/C2=C\C1CC1 [Example 224, (1R,2S,3R,4R,7Z)-7-(cyclopropylmethyl-idene)-N-[4-fluoro-3-(trifluoromethyl)phenyl]-3-(5-{[(3R)-3-(hydroxymethyl)morpholin-4-yl]sulfonyl}-2-methoxybenzamido) bicyclo[2.2.1] heptane-2-carboxamide]  80.3 nM
15. COc1ccc(/C=C/C(=O)N[C@H]2C[C@H](O)C2)cc1C(=O)N[C@@H]1C2CCC(/C2=C/C2CC2)[C@@H]1C(=O)Nc1ccc(F)c(C(F)(F)F)c1 (stereo partly drawn) [Example 127, (2S,3R,7Z)-7-(cyclopropylmethyli-dene)-N-[4-fluoro-3-(trifluoromethyl)phe-nyl]-3-{2-methoxy-5-[(1E)-2-{[(1r,3r)-3-hydroxycyclobutyl]carbamoyl}eth-1-en-1-yl]benzamido}bicyclo [2.2.1]heptane-2-carboxamide]  74 nM
16. COc1ccc(CCN2CCOC2=O)cc1C(=O)NC1C2CCC(/C2=C/C2CCC2)[C@@H]1C(=O)Nc1ccc(F)c(C(F)(F)F)c1 (stereo partly drawn) [Example 191, (7Z)-7-(cyclobutylmethyl-idene)-N-[4-fluoro-3-(trifluoromethyl)phe-nyl]-3-{2-methoxy-5-[2-(2-oxo-1,3-oxazolidin-3-yl)ethyl]benzamido} bicyclo[2.2.1]heptane-2-carboxamide]  40 nM
17. COc1ccc(C(=O)N2CC[C@@H](CO)C2)cc1C(=O)N[C@H]1[C@@H](C(=O)Nc2ccc(F)c(C(F)(F)F)c2)[C@H]2CC[C@@H]1/C2=C\C1CC1 [Example 245, (1R,2S,3R,4R,7Z)-7-(cyclopropyl-methylidene)-N-[4-fluoro-3-(trifluoromethyl)phenyl]-3-{5-[(3R)-3-(hydroxymethyl)pyrrolidine-1-carbonyl]-2-methoxybenzamido} bicyclo[2.2.1]heptane-2-carboxamide]  37.8 nM
18. COc1ccc(CCC(C)(C)O)cc1C(=O)NC1C2CCC(/C2=C/C(C)C)[C@@H]1C(=O)Nc1ccc(F)c(C(F)(F)F)c1 (stereo partly drawn) [Example 158, (7Z)-N-[4-fluoro-3-(trifluoromethyl)phe-nyl]-3-[5-(3-hydroxy-3-methylbutyl)-2-methoxybenzamido]-7-(2-methylpropylidene)bi-cyclo[2.2.1]heptane-2-carboxamide]  9 nM
19. COc1ccc(COC2C[C@@H](O)[C@@H](O)C2)cc1C(=O)N[C@H]1[C@@H](C(=O)Nc2ccc(F)c(C(F)(F)F)c2)[C@H]2CC[C@@H]1/C2=C\C1CC1 (stereo partly drawn) [Example 297, (1R,2S,3R,4R,7Z)-7-(cyclopropylmethylidene)-3-[5-({[(3R,4S)-3,4-dihydroxycyclopentyl]oxy}methyl)-2-methoxybenzamido]-N-[4-fluoro-3-(trifluoromethyl)phenyl]bicyclo[2.2.1]heptane-2-carboxamide]  8.3 nM
20. COc1c(F)cc(C(=O)N2CC3(C2)CC(O)(C(F)(F)F)C3)cc1C(=O)N[C@H]1[C@@H](C(=O)N[C@H](C)C2(C)CC2)[C@H]2CC[C@@H]1/C2=C\C1CC1 [Example 372, (1R,2S,3R,4R,7Z)-7-(cyclopropyl-methylidene)-3-{3-fluoro-5-[6-hydroxy-6-(trifluoromethyl)-2-azaspiro[3.3]heptane-2-carbonyl]-2-methoxybenzamido}-N-[(1R)-1-(1-methylcyclopropyl)ethyl]bicyclo[2.2.1] heptane-2-carboxamide]  5.9 nM
21. COc1ccc(C(=O)NCC2(S(C)(=O)=O)CC2)cc1C(=O)N[C@H]1[C@@H](C(=O)Nc2ccc(F)c(C(F)(F)F)c2)[C@H]2CC[C@@H]1/C2=C\C1CC1 [Example 232, N3-[(1R,2R,3S,4R,7Z)-7-(cyclopropyl-methylidene)-3-{[4-fluoro-3-(trifluoromethyl)phenyl]carbamoyl}bicyclo[2.2.1]heptan-2-yl]-NI-[(1-methanesulfonyl-cyclopropyl)methyl]-4-methoxybenzene-1,3-dicarboxamide]  0.95 nM
